From US20020041897A1, “Compositions for sustained release of antineoplastic taxanes, and methods of making and using the same” (priority 2000, published 2002)

Assay: Plasma concentrations of paclitaxel as a function of dose after intraperitoneal administration to dogs
Details: dog
Description: (30%) microspheres were administered intraperitoneally to dogs at doses of 90, 120, 150, 180 and 210 mg/kg; paclitaxel was administered at doses of 9 mg/kg and 12 mg/kg to other dogs. Each dose group comprised one female dog. Plasma samples were taken from each dog at various time points. Samples were analyzed using a LC/MS/MS method. Results are depicted in FIG. 10.
Following administration of 90 and 120 mg/kg doses of […] (30%) microspheres, plasma samples were collected through 63 days. At doses of 150 and 180 mg/kg, the last sample was obtained at 35 days. The last sampling time for the 210 mg/kg dose was 28 days.

In the case of `CC(=O)O[C@H]1C(=O)[C@@]2(C)[C@H]([C@H](OC(=O)c3ccccc3)[C@]3(O)C[C@H](OC(=O)[C@H](O)[C@@H](NC(=O)c4ccccc4)c4ccccc4)C(C)=C1C3(C)C)[C@]1(OC(C)=O)CO[C@@H]1C[C@@H]2O` [paclitaxel], the toxicity outcome (in vivo, ip, 12 mg/kg) is reported as “euthanized before the completion of the study due to toxicity”, the “decline of plasma paclitaxel concentration” value (intraperitoneal, 9 mg/kg) is reported as “declined in a biphasic manner” and the “time at which maximum plasma paclitaxel concentration was reached” value (intraperitoneal, 9 mg/kg) is reported as 0.5 days. For the same molecule, the “time post dose beyond which plasma paclitaxel could not be detected” value (intraperitoneal, 9 mg/kg) was no more than 7 days.
